Reference: patent publication US20230083012A1, “DIHYDROPYRIMIDINE DERIVATIVES AND USES THEREOF IN THE TREATMENT OF HBV INFECTION OR OF HBV-INDUCED DISEASES” (priority 2019, published 2023)

Legend:
[1] = system: HBV; assay: Anti-HBV activity in HepG2.2.15 cells (HBV DNA in culture medium by qPCR); assay type: cell-based; conditions: Hepatitis B virus, HepG2.2.15, 144 h, HepG2.2.15 cells, 6 days treatment, HBV DNA in culture medium quantified by real-time PCR; read-out: EC50
Method in brief: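 Secreted HBV DNA was measured by real-time PCR after 6-day compound exposure of HepG2.2.15 cells (2% FBS, 37 °C, re-dosed after 3 days), giving EC50 from 8-point 1:3 series starting at 10 or 1 uM. Cytotoxicity (CC50) run separately at lower cell density, top 100 uM.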

[2] = Cytotoxicity determination in HepG2.2.15 cells (CCK-8 cell viability); assay type: cell-based; conditions: human, 6 days treatment, CCK-8 assay, highest concentration 100 uM
Method in brief: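 Viability measured by CCK-8 absorbance (450 nm, 630 nm reference, 2.5 h at 37° C) after six days of treatment, medium and compound renewed on day 3. Top concentration 100 uM, eight threefold dilutions in triplicate; cells plated at 5,000/well in 2% FBS medium; CC50 derived.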

Structure (SMILES)	EC50 [1] [µM]	CC50 at 6 days [2] [µM]
CCOC(=O)C1=C(CN2CC(F)(F)[C@H]3[C@@H]2CCN3C[C@H](C)C(=O)O)NC(c2nccs2)=N[C@H]1c1ccc(F)cc1Cl (single isomer, unassigned) [Compound 135B, 3-((cis)-4-((6-(2-chloro-4-fluorophenyl)-5-(ethoxycarbonyl)-2-(thiazol-2-yl)-3,6-dihydropyrimidin-4-yl)methyl)-6,6-difluorohexahydropyrrolo[3,2-b]pyrrol-1(2H)-yl)-2-methylpropanoic acid]	0.0099	36.3
COC(=O)C1=C(CN2CC(F)(F)[C@H]3[C@@H]2CCN3CCC(C)(C)C(=O)O)NC(c2nccs2)=N[C@H]1c1cccc(F)c1C (single isomer, unassigned) [Compound 136, 4-((cis)-6,6-difluoro-4-((6-(3-fluoro-2-methylphenyl)-5-(methoxycarbonyl)-2-(thiazol-2-yl)-3,6-dihydropyrimidin-4-yl)methyl)hexahydropyrrolo[3,2-b]pyrrol-1(2H)-yl)-2,2-dimethylbutanoic acid]	0.0021	34.4
[2H]C([2H])(CC(C)(C)C(=O)O)N1CC[C@H]2[C@@H]1C(F)(F)CN2CC1=C(C(=O)OCC)[C@H](c2cccc(F)c2C)N=C(c2nccs2)N1 (single isomer, unassigned) [Compound 137]	0.001	21.8
CCOC(=O)C1=C(CN2CC(F)(F)[C@H]3[C@@H]2CCN3CCC(C)(C)C(=O)O)NC(c2nccs2)=N[C@H]1c1ccc(F)c(F)c1Cl (single isomer, unassigned) [Compound 138, 4-((cis)-4-((6-(2-chloro-3,4-difluorophenyl)-5-(ethoxycarbonyl)-2-(thiazol-2-yl)-3,6-dihydropyrimidin-4-yl)methyl)-6,6-difluorohexahydropyrrolo[3,2-b]pyrrol-1(2H)-yl)-2,2-dimethylbutanoic acid]	0.0005	14.5
CCOC(=O)C1=C(CN2CC(F)(F)[C@H]3[C@@H]2CCN3CCC(C)(C)C(=O)O)NC(c2nccs2)=N[C@@H]1c1ccc(F)c(F)c1C (single isomer, unassigned) [Compound 139, 4-((cis)-4-((6-(3,4-difluoro-2-methylphenyl)-5-(ethoxycarbonyl)-2-(thiazol-2-yl)-3,6-dihydropyrimidin-4-yl)methyl)-6,6-difluorohexahydropyrrolo[3,2-b]pyrrol-1(2H)-yl)-2,2-dimethylbutanoic acid]	0.0006	16.1
CCOC(=O)C1=C(CN2CC(F)(F)[C@H]3[C@@H]2CCN3CCC(C)(C)C(=O)O)NC(c2nccs2)=N[C@@H]1c1ccc(F)c(F)c1F (single isomer, unassigned) [Compound 140, (cis)-4-(4-((5-(ethoxycarbonyl)-2-(thiazol-2-yl)-6-(2,3,4-trifluorophenyl)-3,6-dihydropyrimidin-4-yl)methyl)-6,6-difluorohexahydropyrrolo[3,2-b]pyrrol-1(2H)-yl)-2,2-dimethylbutanoic acid]	0.007	36.7
CCOC(=O)C1=C(CN2CC(F)(F)[C@H]3[C@@H]2CCN3CCC(C)(C)C(=O)O)NC(c2nccs2)=N[C@H]1c1ccc(F)cc1Cl (single isomer, unassigned) [Compound 141]	0.0035	26.7
CCOC(=O)C1=C(CN2CC(F)(F)[C@H]3[C@@H]2CCN3CCC(C)(C)C(=O)O)NC(c2nccs2)=N[C@H]1c1cccc(F)c1F (single isomer, unassigned) [Compound 142]	0.008	> 25
CCOC(=O)C1=C(CN2CC(F)(F)[C@H]3[C@@H]2CCN3C[C@H]2C[C@H](C(=O)O)C2)NC(c2nccs2)=N[C@H]1c1cccc(F)c1C (single isomer, unassigned) [Compound 143A]	0.0011	19.2
CCOC(=O)C1=C(CN2CC(F)(F)[C@H]3[C@@H]2CCN3C[C@H]2C[C@@H](C(=O)O)C2)NC(c2nccs2)=N[C@H]1c1cccc(F)c1C (single isomer, unassigned) [Compound 143B]	0.0046	22.8
CCOC(=O)C1=C(CN2CC(F)(F)[C@H]3[C@@H]2CCN3CCCC(C)(C)C(=O)O)NC(c2nccs2)=N[C@H]1c1cccc(F)c1C (single isomer, unassigned) [Compound 144]	0.0198	20.2
CCOC(=O)C1=C(CN2CC(F)(F)[C@H]3[C@@H]2CCN3CCC(C)(C)C(=O)O)NC(c2nccs2)=N[C@H]1c1cccc(F)c1Cl (single isomer, unassigned) [Compound 145, 4-((cis)-4-((6-(2-chloro-3-fluorophenyl)-5-(ethoxycarbonyl)-2-(thiazol-2-yl)-3,6-dihydropyrimidin-4-yl)methyl)-6,6-difluorohexahydropyrrolo[3,2-b]pyrrol-1(2H)-yl)-2,2-dimethylbutanoic acid]	0.0009	26
CCOC(=O)C1=C(CN2CC(F)(F)[C@H]3[C@@H]2CCN3CCC(C)(C)C(=O)O)NC(c2nccn2C)=N[C@H]1c1cccc(F)c1C (single isomer, unassigned) [Compound 146, 4-((cis)-4-((5-(Ethoxycarbonyl)-6-(3-fluoro-2-methylphenyl)-2-(1-methyl-1H-imidazol-2-yl)-3,6-dihydropyrimidin-4-yl)methyl)-6,6-difluorohexahydropyrrolo[3,2-b]pyrrol-1(2H)-yl)-2,2-dimethylbutanoic acid]	0.0131	32.2
CCOC(=O)C1=C(CN2CC(F)(F)[C@H]3[C@@H]2CCN3CCC(C)C(=O)O)NC(c2nccs2)=N[C@H]1c1cccc(F)c1C (single isomer, unassigned) [Compound 147]	< 0.0005	34.6
CCOC(=O)C1=C(CN2CC(F)(F)[C@H]3[C@@H]2CCN3CCOC(C)C(=O)O)NC(c2nccs2)=N[C@H]1c1cccc(F)c1C (single isomer, unassigned) [Compound 148]	0.0073	34.1
CCOC(=O)C1=C(CN2CC(F)(F)[C@H]3[C@@H]2CCN3C[C@@H](C)C(=O)O)NC(c2nccs2)=N[C@H]1c1cccc(F)c1Cl (single isomer, unassigned) [Compound 149A]	< 0.0005	21.8
CCOC(=O)C1=C(CN2CC(F)(F)[C@H]3[C@@H]2CCN3C[C@H](C)C(=O)O)NC(c2nccs2)=N[C@H]1c1cccc(F)c1Cl (single isomer, unassigned) [Compound 149B]	0.0019	34.1
CCOC(=O)C1=C(CN2CC(F)(F)[C@H]3[C@@H]2CCN3c2ncc(C(=O)O)cn2)NC(c2nccs2)=N[C@H]1c1cccc(F)c1C (single isomer, unassigned) [Compound 150]	0.057	15
CCCOC(=O)C1=C(CN2CC(F)(F)[C@H]3[C@@H]2CCN3CCC(C)(C)C(=O)O)NC(c2nccs2)=N[C@H]1c1cccc(F)c1C (single isomer, unassigned) [Compound 151]	0.0187	9.3
Cc1c(F)cccc1[C@@H]1N=C(c2nccs2)NC(CN2CC(F)(F)[C@H]3[C@@H]2CCN3CCC(C)(C)C(=O)O)=C1C(=O)OC(C)C (single isomer, unassigned) [Compound 152]	0.0618	12.7
CCOC(=O)C1=C(CN2CC(F)(F)[C@H]3[C@@H]2CC(C)N3CCC(C)(C)C(=O)O)NC(c2nccs2)=N[C@H]1c1cccc(F)c1C (single isomer, unassigned) [Compound 153]	0.006	21.8
CCOC(=O)C1=C(CN2CC(F)(F)[C@H]3[C@@H]2CC2(CC2)N3CCC(C)(C)C(=O)O)NC(c2nccs2)=N[C@H]1c1cccc(F)c1C (single isomer, unassigned) [Compound 154]	0.071	48.3
CCOC(=O)C1=C(CN2CC(F)(F)[C@H]3[C@@H]2CCN3CC23CC(C(=O)O)(C2)C3)NC(c2nccs2)=N[C@H]1c1cccc(F)c1C (single isomer, unassigned) [Compound 155]	0.0007	10
CCOC(=O)C1=C(CN2CC(F)(F)[C@H]3[C@@H]2CC(=O)N3CCCC(C)(C)C(=O)O)NC(c2nccs2)=N[C@H]1c1cccc(F)c1C (single isomer, unassigned) [Compound 156]	0.063	10.3
[2H]C1([2H])C[C@H]2[C@@H](N1CCC(C)(C)C(=O)O)C(F)(F)CN2CC1=C(C(=O)OCC)[C@H](c2cccc(F)c2C)N=C(c2nccs2)N1 (single isomer, unassigned) [Compound 157]	0.0008	24.8
CCOC(=O)C1=C(CN2CC(F)(F)[C@H]3[C@@H]2CC(=O)N3[C@H]2CC[C@@H](C(=O)O)CC2)NC(c2nccs2)=N[C@H]1c1cccc(F)c1C (single isomer, unassigned) [Compound 158A]	0.0531	27.9
CCOC(=O)C1=C(CN2CC(F)(F)[C@H]3[C@@H]2CC(=O)N3[C@H]2CC[C@H](C(=O)O)CC2)NC(c2nccs2)=N[C@H]1c1cccc(F)c1C (single isomer, unassigned) [Compound 158B]	0.0526	16.6
CCOC(=O)C1=C(CN2CC(F)(F)[C@H]3[C@@H]2CCN3CC(C)(C)C(=O)O)NC(c2nccs2)=N[C@@H]1c1ccc(F)nc1C (single isomer, unassigned) [Compound 159, 3-((cis)-4-((5-(ethoxycarbonyl)-6-(6-fluoro-2-methylpyridin-3-yl)-2-(thiazol-2-yl)-3,6-dihydropyrimidin-4-yl)methyl)-6,6-difluorohexahydropyrrolo[3,2-b]pyrrol-1(2H)-yl)-2,2-dimethylpropanoic acid]	0.0006	75.7
